Format in all cases: biochemical
In one experiment the target is JAK2 (Homo sapiens, UniProt O60674). Nature of the experiment: experiment of inhibiting kinase activity (Caliper mobility shift assay), JAK2. The note with it: for inhibition at 0.01 µM: at 10 nM; for inhibition at 0.01 µM / inhibition at 0.1 µM: read-out: inhibition rate JAK2; for inhibition at 0.1 µM: at 100 nM; for IC50: kinase activity assay, Table 3. The method, then:
(§1) The inhibition rates of tested compounds on JAK1, JAK2, JAK3, TYK2, CDK7, CDK9, EGFR (T790M) and LRRK2 kinases were measured. The test concentrations of the compounds were 10 nM and 100 nM, and the detection was performed by replicate wells. Alternatively, compounds were 3-fold serial diluted from 10 µM for 10 concentrations in replicate wells.
(§2) The inhibitory effects of the compounds on JAK1, JAK2, JAK3, CDK7 and CDK9 kinases were detected by the method of Caliper mobility shift assay. 250 nL of the compound at 100-fold final concentration was transferred to a destination plate 384-well-plate by using a liquid handler Echo 550. A kinase solution at 2.5-fold final concentration was prepared with 1×kinase buffer. 10 µL of the kinase solution with 2.5-fold final concentration was added to compound wells and positive control wells; and 10 µL of 1×kinase buffer was added to negative control wells. The mixture was centrifuged at 1000 rpm for 30 seconds and then incubated at room temperature for 10 minutes. A mixed solution of ATP and kinase substrate at 5/3-fold final concentration was prepared with 1×kinase buffer, and 15 µL of the mixed solution of ATP and substrate at 5/3-fold final concentration was added to start the reaction. The 384-well plate was centrifuged at 1000 rpm for 30 seconds, shaked and mixed evenly, then incubated at room temperature for a corresponding time. 30 µL of stop solution was added to stop the kinase reaction, the mixture was centrifuged at 1000 rpm for 30 seconds, and shaked and mixed evenly. The conversion rate was read by Caliper EZ Reader. The conversion inhibition rate%=(average positive control conversion rate%-sample conversion rate%)/(average positive control conversion rate%-average negative control conversion rate%). Where negative control wells represent the conversion readings of the background well of kinase buffer; and positive control wells represent the conversion readings of wells without compound inhibition. With the log value of concentration as the x axis and the percentage inhibition rate as the y axis, the dose-response curve was fitted by the log (inhibitor) vs. response-variable slope of the analyzing softwar GraphPad Prism 5, and the IC50 values of each compound on enzyme activity were obtained. Calculation formula is as follows: y=Bottom+(Top-Bottom)/(1+10^((LogIC50-x)×hillslope)), where x is logarithm of inhibitor concentration; and Y is % inhibition rate.

The next experiment addresses T1, JAK3 (Homo sapiens, UniProt P52333).
T1 sequence (P52333 1-1124): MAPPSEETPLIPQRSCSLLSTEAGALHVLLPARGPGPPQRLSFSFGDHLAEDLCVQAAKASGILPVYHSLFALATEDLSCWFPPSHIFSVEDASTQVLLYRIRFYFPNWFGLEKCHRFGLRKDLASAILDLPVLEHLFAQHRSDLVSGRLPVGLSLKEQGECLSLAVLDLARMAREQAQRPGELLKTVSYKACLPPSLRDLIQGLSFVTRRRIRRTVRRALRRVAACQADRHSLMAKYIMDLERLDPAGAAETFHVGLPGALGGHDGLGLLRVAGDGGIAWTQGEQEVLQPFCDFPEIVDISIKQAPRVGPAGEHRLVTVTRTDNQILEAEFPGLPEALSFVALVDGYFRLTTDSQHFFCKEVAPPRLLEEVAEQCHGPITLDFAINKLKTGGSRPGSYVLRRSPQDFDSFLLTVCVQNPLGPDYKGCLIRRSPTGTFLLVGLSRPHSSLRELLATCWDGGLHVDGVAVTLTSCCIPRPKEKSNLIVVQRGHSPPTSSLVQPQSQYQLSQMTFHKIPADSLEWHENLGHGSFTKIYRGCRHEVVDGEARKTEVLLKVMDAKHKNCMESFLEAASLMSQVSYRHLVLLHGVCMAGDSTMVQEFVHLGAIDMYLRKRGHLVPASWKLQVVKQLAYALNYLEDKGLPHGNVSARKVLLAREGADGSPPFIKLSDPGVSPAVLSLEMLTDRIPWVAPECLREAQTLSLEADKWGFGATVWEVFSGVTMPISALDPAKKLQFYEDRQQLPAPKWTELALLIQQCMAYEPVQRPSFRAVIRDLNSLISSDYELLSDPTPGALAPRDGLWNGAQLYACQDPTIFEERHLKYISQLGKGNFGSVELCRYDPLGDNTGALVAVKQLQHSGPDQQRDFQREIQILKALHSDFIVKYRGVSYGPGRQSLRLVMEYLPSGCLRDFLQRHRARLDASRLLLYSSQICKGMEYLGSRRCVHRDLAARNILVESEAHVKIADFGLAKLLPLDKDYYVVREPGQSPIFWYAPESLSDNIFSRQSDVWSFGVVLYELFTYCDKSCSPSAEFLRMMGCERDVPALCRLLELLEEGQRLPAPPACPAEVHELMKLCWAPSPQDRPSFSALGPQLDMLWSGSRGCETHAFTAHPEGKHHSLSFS
As to the kind of experiment: experiment of inhibiting kinase activity (Caliper mobility shift assay), JAK3. The note with it: for inhibition at 0.01 µM: at 10 nM. As to the method: as §1, §2

Another experiment addresses LRRK2 (Homo sapiens, UniProt Q5S007). As to the kind of experiment: experiment of inhibiting kinase activity, LRRK2. The note with it: for inhibition at 0.01 µM: at 10 nM; for inhibition at 0.01 µM / inhibition at 0.1 µM: read-out: inhibition rate LRRK2; for IC50: kinase activity assay, Table 3; for inhibition at 0.1 µM: at 100 nM. As to the method:
as §1

Another experiment addresses JAK1 (Homo sapiens, UniProt P23458). Nature of the experiment: experiment of inhibiting kinase activity (Caliper mobility shift assay), JAK1. The note with it: read-out: inhibition rate JAK1; for inhibition at 0.01 µM: at 10 nM. The method, then: as §1, §2
The next experiment addresses TYK2 (Homo sapiens, UniProt P29597). Nature of the experiment: experiment of inhibiting kinase activity, TYK2. The note with it: read-out: inhibition rate TYK2; for inhibition at 0.01 µM: at 10 nM. As to the method: as §1

This passage reports inhibition and IC50 results from patent publication EP4592286A1, “MACROCYCLIC NITROGEN-CONTAINING CROWN ETHER COMPOUND AND USE THEREOF AS PROTEIN KINASE INHIBITOR” (Artivila Biopharma, priority 2022, dated 2024).

TYK2, sequence (P29597 whole entry): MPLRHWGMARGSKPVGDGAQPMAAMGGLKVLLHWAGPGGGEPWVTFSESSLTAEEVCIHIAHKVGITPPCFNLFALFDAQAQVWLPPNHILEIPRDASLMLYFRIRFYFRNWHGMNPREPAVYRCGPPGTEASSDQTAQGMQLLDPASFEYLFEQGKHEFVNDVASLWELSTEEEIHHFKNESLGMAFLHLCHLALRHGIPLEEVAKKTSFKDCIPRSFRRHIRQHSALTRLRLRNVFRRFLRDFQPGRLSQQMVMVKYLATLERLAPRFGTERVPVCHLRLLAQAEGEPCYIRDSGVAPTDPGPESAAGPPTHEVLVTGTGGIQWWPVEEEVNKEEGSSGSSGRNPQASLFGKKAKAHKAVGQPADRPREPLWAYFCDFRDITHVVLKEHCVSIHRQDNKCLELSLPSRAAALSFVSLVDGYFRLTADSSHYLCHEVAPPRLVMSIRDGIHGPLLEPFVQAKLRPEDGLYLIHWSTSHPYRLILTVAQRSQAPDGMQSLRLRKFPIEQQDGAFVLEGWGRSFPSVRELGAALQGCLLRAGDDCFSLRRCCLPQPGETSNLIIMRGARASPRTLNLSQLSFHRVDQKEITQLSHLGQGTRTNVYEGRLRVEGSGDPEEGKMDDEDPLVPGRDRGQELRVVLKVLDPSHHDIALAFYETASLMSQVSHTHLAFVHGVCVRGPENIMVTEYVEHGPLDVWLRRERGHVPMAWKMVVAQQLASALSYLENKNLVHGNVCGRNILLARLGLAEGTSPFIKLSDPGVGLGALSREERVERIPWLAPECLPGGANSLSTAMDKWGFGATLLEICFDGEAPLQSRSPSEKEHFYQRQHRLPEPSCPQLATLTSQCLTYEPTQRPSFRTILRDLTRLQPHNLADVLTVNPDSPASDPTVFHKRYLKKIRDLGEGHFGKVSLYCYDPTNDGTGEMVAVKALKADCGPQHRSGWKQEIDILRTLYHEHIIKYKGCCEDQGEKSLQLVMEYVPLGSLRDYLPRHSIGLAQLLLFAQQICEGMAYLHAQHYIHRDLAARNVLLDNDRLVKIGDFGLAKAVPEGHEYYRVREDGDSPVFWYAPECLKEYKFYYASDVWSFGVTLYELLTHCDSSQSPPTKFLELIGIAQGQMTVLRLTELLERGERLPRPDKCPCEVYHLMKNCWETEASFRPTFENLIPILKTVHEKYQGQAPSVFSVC
JAK1, sequence (P23458 whole entry): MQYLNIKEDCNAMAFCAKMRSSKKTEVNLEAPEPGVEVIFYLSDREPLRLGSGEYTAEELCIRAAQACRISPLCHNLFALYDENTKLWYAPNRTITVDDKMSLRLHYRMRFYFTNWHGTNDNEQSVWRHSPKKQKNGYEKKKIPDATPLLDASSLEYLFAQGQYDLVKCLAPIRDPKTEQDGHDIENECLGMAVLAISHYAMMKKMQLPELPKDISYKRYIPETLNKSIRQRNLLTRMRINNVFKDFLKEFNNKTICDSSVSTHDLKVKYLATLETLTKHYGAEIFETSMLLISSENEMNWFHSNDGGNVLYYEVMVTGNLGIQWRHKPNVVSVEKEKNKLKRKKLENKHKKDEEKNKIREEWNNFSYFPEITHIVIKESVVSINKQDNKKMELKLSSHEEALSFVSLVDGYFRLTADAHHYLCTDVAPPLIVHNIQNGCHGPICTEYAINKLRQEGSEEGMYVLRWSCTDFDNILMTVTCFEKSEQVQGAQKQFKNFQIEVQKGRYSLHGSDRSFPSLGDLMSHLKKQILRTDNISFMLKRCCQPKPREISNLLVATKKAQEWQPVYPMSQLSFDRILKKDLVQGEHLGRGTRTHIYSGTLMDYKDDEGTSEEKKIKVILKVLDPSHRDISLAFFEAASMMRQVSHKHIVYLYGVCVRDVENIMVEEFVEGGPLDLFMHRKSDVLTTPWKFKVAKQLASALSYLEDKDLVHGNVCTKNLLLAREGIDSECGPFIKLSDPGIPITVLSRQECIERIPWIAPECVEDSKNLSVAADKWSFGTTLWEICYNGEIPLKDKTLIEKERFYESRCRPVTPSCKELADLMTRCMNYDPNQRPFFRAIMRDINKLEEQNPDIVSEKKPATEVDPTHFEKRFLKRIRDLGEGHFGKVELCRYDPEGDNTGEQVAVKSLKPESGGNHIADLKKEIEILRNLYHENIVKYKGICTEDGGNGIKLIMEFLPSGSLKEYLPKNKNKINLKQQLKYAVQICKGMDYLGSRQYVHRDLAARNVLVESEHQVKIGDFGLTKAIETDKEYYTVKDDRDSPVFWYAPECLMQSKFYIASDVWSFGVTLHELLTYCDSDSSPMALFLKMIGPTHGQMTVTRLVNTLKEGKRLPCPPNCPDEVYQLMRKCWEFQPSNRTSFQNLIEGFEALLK
LRRK2, sequence (Q5S007 whole entry): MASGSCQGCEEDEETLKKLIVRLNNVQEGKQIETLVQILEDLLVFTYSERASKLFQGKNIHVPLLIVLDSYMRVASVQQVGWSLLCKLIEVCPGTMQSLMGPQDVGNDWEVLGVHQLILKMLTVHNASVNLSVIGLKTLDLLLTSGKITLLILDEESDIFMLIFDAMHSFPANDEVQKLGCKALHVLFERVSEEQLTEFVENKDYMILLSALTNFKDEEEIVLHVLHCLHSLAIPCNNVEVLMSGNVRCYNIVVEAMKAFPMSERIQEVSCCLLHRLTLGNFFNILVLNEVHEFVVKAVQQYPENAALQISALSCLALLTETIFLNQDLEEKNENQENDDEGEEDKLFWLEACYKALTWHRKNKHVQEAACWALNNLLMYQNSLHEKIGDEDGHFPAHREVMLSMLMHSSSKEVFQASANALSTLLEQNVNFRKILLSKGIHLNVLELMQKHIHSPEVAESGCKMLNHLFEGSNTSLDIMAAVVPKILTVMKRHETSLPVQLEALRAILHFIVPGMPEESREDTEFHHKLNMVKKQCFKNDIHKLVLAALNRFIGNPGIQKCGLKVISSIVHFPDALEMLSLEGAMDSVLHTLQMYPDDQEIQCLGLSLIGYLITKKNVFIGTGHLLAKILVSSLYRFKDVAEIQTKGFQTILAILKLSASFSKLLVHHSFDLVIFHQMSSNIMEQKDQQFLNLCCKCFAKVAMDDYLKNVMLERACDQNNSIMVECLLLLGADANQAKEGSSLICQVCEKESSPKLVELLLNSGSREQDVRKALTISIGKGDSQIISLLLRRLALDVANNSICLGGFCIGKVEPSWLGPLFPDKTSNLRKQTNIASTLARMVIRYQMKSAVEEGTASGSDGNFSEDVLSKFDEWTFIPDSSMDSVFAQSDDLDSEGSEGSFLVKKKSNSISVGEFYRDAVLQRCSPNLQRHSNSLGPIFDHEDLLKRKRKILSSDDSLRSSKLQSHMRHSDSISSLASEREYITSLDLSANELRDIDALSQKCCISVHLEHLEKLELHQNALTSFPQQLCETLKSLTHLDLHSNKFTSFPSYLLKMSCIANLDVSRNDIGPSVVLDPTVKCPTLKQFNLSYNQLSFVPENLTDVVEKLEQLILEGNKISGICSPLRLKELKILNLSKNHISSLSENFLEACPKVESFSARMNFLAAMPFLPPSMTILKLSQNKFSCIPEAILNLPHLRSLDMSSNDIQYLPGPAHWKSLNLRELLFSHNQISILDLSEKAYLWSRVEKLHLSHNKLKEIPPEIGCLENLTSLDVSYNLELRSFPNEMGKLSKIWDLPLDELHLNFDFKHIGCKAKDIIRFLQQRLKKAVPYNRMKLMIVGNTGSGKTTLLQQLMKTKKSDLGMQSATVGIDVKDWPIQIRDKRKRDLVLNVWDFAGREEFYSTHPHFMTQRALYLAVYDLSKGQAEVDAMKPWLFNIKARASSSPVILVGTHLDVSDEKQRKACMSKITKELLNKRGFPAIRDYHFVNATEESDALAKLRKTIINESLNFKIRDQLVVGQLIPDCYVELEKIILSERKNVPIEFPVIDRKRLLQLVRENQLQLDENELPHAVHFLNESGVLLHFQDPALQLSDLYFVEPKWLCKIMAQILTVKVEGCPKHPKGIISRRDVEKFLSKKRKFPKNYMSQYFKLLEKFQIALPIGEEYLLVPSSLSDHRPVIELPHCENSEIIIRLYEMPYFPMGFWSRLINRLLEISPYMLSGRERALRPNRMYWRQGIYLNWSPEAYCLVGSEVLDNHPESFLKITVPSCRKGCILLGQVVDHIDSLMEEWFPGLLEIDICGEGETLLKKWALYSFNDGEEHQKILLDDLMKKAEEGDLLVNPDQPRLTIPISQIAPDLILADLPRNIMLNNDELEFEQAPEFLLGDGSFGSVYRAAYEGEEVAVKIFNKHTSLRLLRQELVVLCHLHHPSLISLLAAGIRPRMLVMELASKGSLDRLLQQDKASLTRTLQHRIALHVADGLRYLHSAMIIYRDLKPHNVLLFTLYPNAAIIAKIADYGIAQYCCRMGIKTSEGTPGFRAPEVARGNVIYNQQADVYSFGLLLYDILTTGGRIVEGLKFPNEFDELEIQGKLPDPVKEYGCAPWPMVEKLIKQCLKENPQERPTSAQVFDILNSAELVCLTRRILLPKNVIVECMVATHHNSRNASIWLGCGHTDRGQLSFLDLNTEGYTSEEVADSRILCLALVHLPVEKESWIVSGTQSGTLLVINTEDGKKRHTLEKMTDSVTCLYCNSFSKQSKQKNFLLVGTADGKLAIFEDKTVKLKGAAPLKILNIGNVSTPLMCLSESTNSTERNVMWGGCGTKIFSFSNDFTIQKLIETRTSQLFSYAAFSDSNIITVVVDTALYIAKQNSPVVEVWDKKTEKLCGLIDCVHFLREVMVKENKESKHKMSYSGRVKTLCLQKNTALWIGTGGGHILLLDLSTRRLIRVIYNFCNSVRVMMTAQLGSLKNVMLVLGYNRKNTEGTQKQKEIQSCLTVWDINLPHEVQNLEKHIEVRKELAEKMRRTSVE

Usually inhibition stands for the relative decrease from the control value, in per cent. Take `CN1CCOc2ccc(Nc3nc(-c4cnn(C5CN(S(C)(=O)=O)C5)c4)c4cc[nH]c4n3)cc2OCC1` [Example 69, 4-methyl-N-(4-(1-(1-(methylsulfonyl)azetidin-3-yl)-1H-pyrazol-4-yl)-7H-pyrrolo [2,3-d]pyrimidin-2-yl)-3,4,5,6-tetrahydro-2H-benzo[b][1,4,7]dioxazolin-9-amine]: the inhibition at 0.01 µM on JAK2 was 40 to 79%; on JAK3 (read-out: inhibition rate JAK3), 25 to 39%; at LRRK2, 25 to 39%.
Consider `CN1CCOc2ccc(Nc3ncc(Cl)c(Nc4cccc(NC(=O)[C@H]5C[C@H](N)C5)c4)n3)cc2OCC1` [Example 72, (1r,3r)-3-amino-N-(3-((5-chloro-2-((4-methyl-3,4,5,6-tetrahydro-2H-benzo[b][1,4,7]dioxazolin-9-yl)amino)pyrimidin-4-yl)amino)phenyl)cyclobutan-1-carboxamide], for which the inhibition at 0.01 µM on JAK2 lay within 40 to 79%; on JAK1, 25 to 39%.
The IC50 is the concentration at which inhibition is half-maximal. As for `CN1CCOc2ccc(Nc3ncc(F)c(Nc4cccc(S(=O)(=O)NC(C)(C)C)c4)n3)cc2OCC1` [Example 1, N-(tert-butyl)-3-((5-fluoro-2-((4-methyl-3,4,5,6-tetrahydro-2H-benzo[b][1,4,7]dioxazolin-9-yl)amino)pyrimidin-4-yl)amino)benzsulfamide], the inhibition at 0.01 µM at JAK2 was in the range of 40 to 79%. The inhibition at 0.1 µM at JAK2 was > 80%; on JAK1 (at 100 nM), 25 to 39%; at JAK3 (at 100 nM, read-out: inhibition rate JAK3), 25 to 39%. Moreover, at JAK2, the IC50 was < 50 nM.
`CCS(=O)(=O)N1CC(CC#N)(n2cc(-c3nc(Nc4ccc5c(c4)OCCN(C)CCOCCO5)nc4[nH]ncc34)cn2)C1` [Example 50, 2-(1-(ethylsulfonyl)-3-(4-(6-((7-methyl-2,3,6,7,8,9-hexahydro-5H-benzo[b][1,4,7]trioxa[10]azacyclododecan-12-yl)amino)-1H-pyrazolo[3,4-d]pyrimidin-4-yl)-1H-pyrazol-1-y 1)azetidin-3-yl)acetonitrile]: the inhibition at 0.01 µM at TYK2 is 25 to 39%; at JAK2 it was > 80%.
With `CN1CCOCCOc2ccc(Nc3ncc(F)c(-c4cn(C)c5ccccc45)n3)cc2OCC1` [Example 41, N-(5-fluoro-4-(1-methyl-1H-indol-3-yl)pyrimidin-2-yl)-7-methyl-2,3,6,7,8,9-hexahydro-5H-benzo[b][1,4,7]trioxa[10]azacyclododecan-12-amine], the inhibition at 0.01 µM at JAK2 fell in the range of 40 to 79%; at JAK3 (read-out: inhibition rate JAK3), 25 to 39%.
As to `CCS(=O)(=O)N1CC(CC#N)(n2cc(-c3nc(Nc4ccc5c(c4)OCCN(C)CCOCCO5)ncc3F)cn2)C1` [Example 43, 2-(1-(ethylsulfonyl)-3-(4-(5-fluoro-2-((7-methyl-2,3,6,7,8,9-hexahydro-5H-benzo[b][1,4,7]trioxa[10]azacyclododecan-12-yl)amino)pyrimidin-4-yl)-1H-pyrazol-1-yl)azetidin-3-yl) acetonitrile], the inhibition at 0.01 µM was 40 to 79% on TYK2, > 80% at JAK2, 25 to 39% on JAK3 (read-out: inhibition rate JAK3) and 25 to 39% on LRRK2.
For `CN1CCOCCOc2cc(Nc3nc(Nc4ccccc4NS(C)(=O)=O)c4cc[nH]c4n3)ccc2OCC1` [Example 61, N-(2-((2-((7-methyl-2,3,6,7,8,9-hexahydro-5H-benzo[b][1,4,7]trioxa[10]azacyclododecan-13-yl)amino)-7H-pyrrolo[2,3-d]pyrimidin-4-yl)amino)phenyl)methanesulfonamide], the inhibition at 0.01 µM was 40 to 79% at JAK2, 40 to 79% at JAK3 (read-out: inhibition rate JAK3) and > 80% on LRRK2. Besides, the IC50 on LRRK2 was < 50 nM.
Regarding `CN1CCOc2ccc(Nc3nc(Nc4cccc(S(=O)(=O)NC(C)(C)C)c4)c4cc[nH]c4n3)cc2OCC1` [Example 21, N-(tert-butyl)-3-((2-((4-methyl-3,4,5,6-tetrahydro-2H-benzo[b][1,4,7]dioxazolin-9-yl)amino)-7H-pyrrolo[2,3-d]pyrimidin-4-yl)amino)benzenesulfonamide], at JAK2, the inhibition at 0.1 µM is 40 to 79% and the IC50 is < 50 nM. Also, on LRRK2, the inhibition at 0.1 µM lay in the range of 40 to 79% and the IC50 lay in the range of 50 to 200 nM.
For `CN1CCOc2ccc(Nc3nc(N4C[C@H]5CC[C@@H](C4)N5C(=O)C4CC4)c4cc[nH]c4n3)cc2OCC1` [Example 79, cyclopropyl((1R,5S)-3-(2-((4-methyl-3,4,5,6-tetrahydro-2H-benzo[b][1,4,7]dioxazolin-9-yl)amino)-7H-pyrrolo[2,3-d]pyrimidin-4-yl)-3,8-diazabicyclo[3.2.1]octan-8-yl)methanone], the inhibition at 0.01 µM on TYK2 was > 80%; on JAK2, > 80%; at JAK1, 40 to 79%; on LRRK2, 40 to 79%.
For `CN1CCOc2ccc(Nc3ncc(F)c(-c4cn(C)c5ccccc45)n3)cc2OCC1` [Example 13, N-(5-fluoro-4-(1-methyl-1H-indol-3-yl)pyrimidin-2-yl)-4-methyl-3,4,5,6-tetrahydro-2H -benzo[b][1,4,7]bisoxazolin-9-amine], the inhibition at 0.1 µM fell in the range of 25 to 39% at TYK2 (at 100 nM), 40 to 79% at JAK2 and 40 to 79% at LRRK2. Also, the IC50 at JAK2 is < 50 nM; on JAK3 (kinase activity assay, Table 3), 50 to 200 nM; against LRRK2, 50 to 200 nM.
In the case of `CNc1nc(Nc2ccc3c(c2)OCCN(C)CCO3)nc2[nH]ccc12` [Example 64, N^4-methyl-N^2-(4-methyl-3,4,5,6-tetrahydro-2H-benzo[b][1,4,7]dioxazolin-9-yl)-7H-pyrrolo[2,3-d]pyrimidin-2,4-diamine], the results for the inhibition at 0.1 µM at JAK2 and at LRRK2 were 25 to 39% and > 80%, respectively.
On to `CN1CCOCCOc2cc(Nc3nc(-c4cnn(S(C)(=O)=O)c4)c4cc[nH]c4n3)ccc2OCC1` [Example 63, 7-methyl-N-(4-(1-(methylsulfonyl)-1H-pyrazol-4-yl)-7H-pyrrolo[2,3-d]pyrimidin-2-yl)-2,3,6,7,8,9-hexahydro-5H-benzo[b][1,4,7]trioxa[10]azacyclododecan-13-amine], for which the inhibition at 0.01 µM on JAK2 and on LRRK2 was 40 to 79% throughout.
